Laboratory results: patent US9029362B2, “Iminothiadiazine dioxide compounds as brace inhibitors, compositions, and their use” (Merck Sharp & Dohme Corp., priority 2009, dated 2015)
Read-outs that look alike come from different tables or passages of the source.

How the values were obtained:
[1] = Solution stability, Example B (pH 7.4 phosphate buffer/acetonitrile, 25° C., LC/MS); type: physicochemical; settings: pH 7.4 buffer at 25° C., after 6 days
Method: Stock solutions of the tested compounds were prepared by dissolving about 3 mg of each compound in 3 mL of acetonitrile. Standards for test compounds were prepared by diluting 1 mL of the stock solution with an additional 4 mL of acetonitrile. These standards were stored at 4° C. Samples were prepared by diluting 1 mL of the stock solution with 4 mL of 50 mM pH 7.4 phosphate buffer. These samples were stored at 25° C. in the absence of light. Standards and samples were analyzed by LC/MS initially and at day 1, day 4, and day 6.
HPLC Conditions: • Mobile phase A: 10 mM pH 5 ammonium acetate buffer: methanol (90:10) • Mobile phase B: 10 mM pH 5 ammonium acetate buffer: methanol (10:90)
Column: Zorbax SB-Phenyl 4.6×50 mm, 1.8 μm • Column temperature: 40° C. • Flow: 0.8 mL/min. • Gradient:
• Detectors: UV at 220 nm and 236 nm
MS, ES ionization, positive mode, for identification only at final time point.
The terms reported in the tables below have the following meanings:
Area % is the integration of peak from HPLC as reported by Waters Empower II software.
RRT is the relative retention time of new product compared to the standard of the test compound.
In the following study, the solution stability of the compound of Example 47 was measured and compared to that of Compound Y. The compound of Example 47 is an iminothiadiazine dioxide compound of the invention. […]

[2] = Solution stability, Example A (pH 7.4 phosphate buffer/MeOH, LC/MS); type: physicochemical
Method: A 1.05 mg/mL stock solution (5 mL) of Ex. 45 in MeOH was prepared. From the stock solution was taken out 1.25 mL and diluted to 25 mL with the addition of 23.75 mL of 10 mM phosphate buffer (pH 7.4)/MeOH (70/30 v/v). This new solution was split into three. One solution was incubated at 4° C., another incubated at 25° C. and the third incubated at 40° C. Each solution was analyzed by LC/MS after day 1, day 2 and day 6 and compared to a standard calibration curve for Ex. 45.
In the following study, the solution stability of the compound of Example 45 was measured and compared to that of Compound Z. The compound of Example 45 is an iminothiadiazine dioxide compound of the invention. Compound Z is the corresponding iminopyrimidinone compound. The structures of the compound of Example 45 and of Compound Z are shown below. Studies were performed in aqueous pH 7.4 buffer containing methanol at 4° C., 25° C. and 40° C.

[3] = biological target: soluble human BACE1 catalytic domain (Homo sapiens (Human), UniProt P56817); experiment: BACE1 HTRF FRET Assay; type: biochemical; settings: about values; read-out: Ki value in BACE-1 assay
Sequence of soluble human BACE1 catalytic domain (P56817 75-416): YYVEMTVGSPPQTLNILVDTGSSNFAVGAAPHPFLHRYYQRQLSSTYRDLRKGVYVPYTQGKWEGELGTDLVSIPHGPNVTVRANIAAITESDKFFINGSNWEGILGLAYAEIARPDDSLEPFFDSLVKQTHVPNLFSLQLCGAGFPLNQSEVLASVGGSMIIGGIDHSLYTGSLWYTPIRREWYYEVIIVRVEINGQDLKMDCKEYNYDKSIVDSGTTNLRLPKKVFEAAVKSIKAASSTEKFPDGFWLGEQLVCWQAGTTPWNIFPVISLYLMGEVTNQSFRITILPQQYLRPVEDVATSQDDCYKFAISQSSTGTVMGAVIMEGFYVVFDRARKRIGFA

rat cortex Aβ40 = experiment: Cortical Aβ40 in rats after oral dose (Luminex immunoassay); type: in vivo; settings: 3 h after a 10 mg/kg oral dose, relative to vehicle cohort; for Change in rat cortex Aβ40 (Iminopyrimidinone): iminopyrimidinone analog
Method: Male CD rats (˜100 g; Crl:CD(SD); Charles River Laboratories, Kingston, N.Y.) were group housed and acclimated to the vivarium for 5-7 days prior to use in a study. Compounds were formulated in 20% hydroxypropyl-β-cyclodextrin and administered orally with a dosing volume of 5 ml/kg for rats. Three h after drug administration, rats were euthanized with excess CO2. The brain was removed from the skull and immediately frozen on dry ice. All tissues were stored at −70° C. until Aβ quantification.
Ab585 was labeled with biotin (b-Ab585) by first dialyzing the antibody sample extensively versus PBS (pH 7.8) to remove impurities, followed by dilution to between 1 and 2 mg/mL protein concentration. EZ-Link Sulfo-NHS-LC-Biotin (Pierce) was dissolved in PBS (pH 7.8) at a concentration of 1 mg/mL immediately prior to use. Ab585 was labeled with EZ-Link Sulfo-NHS-LC-biotin using a 10:1 biotin:antibody ratio by incubation at room temperature for 1 hour. The labeling reaction was quenched by addition of 1.0 M glycine to a final concentration of 0.1 M followed by 10 minute incubation at room temperature. Glycine was removed by extensive dialysis versus PBS.
The antibody was coupled to the beads using the Bio-Plex Amine Coupling Kit (Bio-Rad) as per the manufacturer's recommendations.
Rat brains were thawed briefly at 37° C. and both mid- and hindbrain regions were removed. The remaining material, consisting primarily of cortex (−800 mg) was carried through the guanidine extraction procedure. Cortices were added to a 2 ml BioPur tube (Eppendorf) along with a 6.35 mm chrome-coated steel ball and 1.0 ml of sucrose homogenization buffer (20 mM HEPES [pH 7.5], 50 mM KCl, 50 mM sucrose, 2 mM EDTA, 2 mM EGTA supplemented with complete protease inhibitors [Roche, EDTA-free]). Samples were then homogenized by agitation for 1.5 min at 30 cylces/sec in a MM300 tissue mixer (Retsch®). The resulting cortical homogenate was extracted with guanidine-HCl by mixing 67 μl of homogenate with 133 μl of 5 M Guanidine HCl, 50 mM Tris HCl (pH 8.0). To maximize the efficiency of Aβ extraction, samples were vortexed and then sonicated for 2 minutes in an ice bath using an Ultrasonics XL cup horn sonicator at a power setting of 8 (Heat Systems, Inc.). Insoluble material was removed by ultracentrifugation using a using a TLA-55 rotor in a TL-100 benchtop centrifuge (Beckman) at 100,000×g for 30 minutes. The resulting supernatant was then either diluted 1:10 in 5 M guanidine HCl, 0.05 M Tris HCl (pH 8.0) for protein analysis (BCA protein assay, Pierce Biochemicals) or assayed neat for Aβ340 levels. The Luminex rodent A1340 assay was performed as follows. First, 96 well filter binding plates (Millipore, catalogue #MSBVN12) were wetted with 100 μl of 1×LAβ40 buffer (0.05 M HEPES [pH 7.5], 0.2% BSA, 0.2% Tween-20, 0.15 M NaCl) by vacuum filtration on a Millipore 96-well manifold. […] Guanidine HCl was added to synthetic rodent Aβ40 standards in order to control for the effect of guanidine in brain extracts on the assay performance. Ten microliters of cortical extract, rodent Aβ40 standards or cortical extract from amyloid precursor protein knockout mice (to define background immunoreactivity) was added to each well. Plates were covered and incubated overnight at 4° C. Following the incubation, wells were cleared by vacuum and washed twice with 100 μl of 1×LAβ40 buffer on a Millipore manifold. Phycoerythrin-conjugated streptavidin (PE-strepavidin, BioRad) for detection of bound b-Ab585 was diluted 100-fold in 1×LA340 buffer and 50 μl was added to each well and incubated for 1 hour at room temperature with shaking.

[4] = Caco-2 Bi-directional Permeability; type: in vitro ADME; settings: human; for Papp A→B at 2 h: Caco-2, pH 7.4, apical to basolateral, 2-hr incubation, read-out: Caco-2 AP → BL (nm/s) (Iminothiadiazine Dioxide)
Method: (§1) The bi-directional permeability with efflux potential of selected compounds of the invention vs. otherwise structurally identical iminopyrimidinones (collectively referred to as test compounds, shown in the table below) were assessed using Caco-2 cell line. The Caco-2 cells were maintained in DMEM (Dulbecco's Modified Eagle Medium) containing 10% fetal bovine serum, 1% non-essential amino acids, 2 mM L-glutamine, and 1% penicillin-streptomycin in an incubator at ˜37° C. in an atmosphere of 5% CO2 and about 90% relative humidity. The cell culture medium was changed three times weekly. Caco-2 cell monolayers were grown on polyethylene terephthalate filters using 24-well BD Falcon™ Cell Culture Insert Plates (0.33 cm^2 insert area, 1 μm pore size; BD BioSciences, Bedford, Mass.). The culture medium of the plate was changed every other day until used for the transport experiment (21-28 days post seeding).
(§2) The transport buffer (TM) was Hank's balanced salt solution (HBSS) with 10 mM HEPES and 25 mM glucose (pH 7.4) for dosing and TM with 4% bovine serum albumin for receiver (pH 7.4). The bi-directional permeability of the test compounds were tested at concentrations of 1, 10 and 100 μM was measured in triplicate with 2-hr incubation. The cell monolayer integrity was monitored with pre- and post-experimental trans-epithelial electrical resistance and post-experimental Lucifer Yellow (LY) permeability with 1 hr incubation.
(§3) The apparent permeability, recovery and efflux ratio values were calculated using the following equations:

[5] = biological target: purified human autoBACE-2 (Homo sapiens (Human), UniProt Q9Y5Z0); experiment: BACE-2 Assay (BACE-HTRF assay); type: biochemical
Sequence of purified human autoBACE-2 (Q9Y5Z0 63-518): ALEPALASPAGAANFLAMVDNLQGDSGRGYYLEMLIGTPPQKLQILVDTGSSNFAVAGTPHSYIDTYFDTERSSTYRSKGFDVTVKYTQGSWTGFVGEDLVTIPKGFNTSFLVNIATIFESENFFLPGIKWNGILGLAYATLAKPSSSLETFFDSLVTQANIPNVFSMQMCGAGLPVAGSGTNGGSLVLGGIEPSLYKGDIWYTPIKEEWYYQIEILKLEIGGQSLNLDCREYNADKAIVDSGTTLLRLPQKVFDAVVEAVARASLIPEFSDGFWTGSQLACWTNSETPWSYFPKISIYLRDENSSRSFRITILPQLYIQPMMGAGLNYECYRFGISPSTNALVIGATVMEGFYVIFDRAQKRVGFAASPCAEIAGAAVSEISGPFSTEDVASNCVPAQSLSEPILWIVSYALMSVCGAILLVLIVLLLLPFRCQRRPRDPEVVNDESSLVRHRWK
Method: Inhibitor IC50s at purified human autoBACE-2 were determined in a time-resolved endpoint proteolysis assay that measures hydrolysis of the QSY7-[sequence]-Eu-amide FRET peptide substrate (BACE-HTRF assay). […] DMSO was present at 5% final concentration in the assay. Following laser excitation of sample wells at 320 nm, the fluorescence signal at 620 nm was collected for 400 ms following a 50 s delay on a RUBYstar HTRF plate reader (BMG Labtechnologies). Raw RFU data was normalized to maximum (1.0 nM BACE/DMSO) and minimum (no enzyme/DMSO)RFU values. […] The Ki values were calculated from the IC50 using the Cheng-Prusoff equation.

Caco-2 cells = experiment: Caco-2 Bi-directional Permeability; type: in vitro ADME; settings: apical to basolateral, 2-hr incubation; for Caco-2 AP → BL (nm/s) (Iminopyrimidinone): iminopyrimidinone analog
Method: as §1, §2, §3

## CN1C(=N)N[C@](C)(c2cc(-c3cccc(C#N)c3)cs2)CC1=O [Compound Z]
[1]
  hydrolysis product: 12.45%
[2]; pH 7.4, 4° C., 2 days
  Assay (Area %), degradation flag: — ((—) stands for >20% degradation)
[2]; pH 7.4, 4° C., 6 days
  Assay (Area %), degradation flag: — ((—) stands for >20% degradation)
[2]; pH 7.4, 25° C., 2 days
  Assay (Area %), degradation flag: — ((—) stands for >20% degradation)
[2]; pH 7.4, 25° C., 6 days
  Assay (Area %), degradation flag: — ((—) stands for >20% degradation)
[2]; pH 7.4, 40° C., 2 days
  Assay (Area %), degradation flag: — ((—) stands for >20% degradation)
[2]; pH 7.4, 40° C., 6 days
  Assay (Area %), degradation flag: — ((—) stands for >20% degradation)

## CN1C(=N)N[C@](C)(c2cccs2)CS1(=O)=O [Example 19]
[3]
  Ki: ≥ 5000 nM

## CN1C(=N)N[C@](C)(c2cc(NC(=O)c3ccc(F)cn3)ccc2F)CS1(=O)=O [Example 25]
Rat cortex Aβ40
  Change in rat cortex Aβ40 (Iminothiadiazine Dioxide): −49%
[4]
  Papp A→B at 2 h: 12.8 ×10⁻⁶ cm/s

## CN1C(=N)N[C@](C)(c2cc(NC(=O)c3ccc(C(F)(F)F)cn3)ccc2F)CS1(=O)=O [Example 26]
Rat cortex Aβ40
  Change in rat cortex Aβ40 (Iminothiadiazine Dioxide): −33%
[4]
  Papp A→B at 2 h: 8.9 ×10⁻⁶ cm/s

## CN1C(=N)N[C@](C)(c2cc(NC(=O)c3ccc(Cl)cn3)ccc2F)CS1(=O)=O [Example 34]
Rat cortex Aβ40
  Change in rat cortex Aβ40 (Iminothiadiazine Dioxide): −51%
[4]
  Papp A→B at 2 h: 11.8 ×10⁻⁶ cm/s

## Cc1ccc(C(=O)Nc2ccc(F)c([C@]3(C)CS(=O)(=O)N(C)C(=N)N3)c2)nc1 [Example 35]
[4]
  Papp A→B at 2 h: 15.1 ×10⁻⁶ cm/s

## Cc1cnc(C(=O)Nc2ccc(F)c([C@]3(C)CS(=O)(=O)N(C)C(=N)N3)c2)cn1 [Example 36]
Rat cortex Aβ40
  Change in rat cortex Aβ40 (Iminothiadiazine Dioxide): −25%
[4]
  Papp A→B at 2 h: 5.4 ×10⁻⁶ cm/s

## COc1cnc(C(=O)Nc2ccc(F)c([C@]3(C)CS(=O)(=O)N(C)C(=N)N3)c2)cn1 [Example 40ai]
Rat cortex Aβ40
  Change in rat cortex Aβ40 (Iminothiadiazine Dioxide): −51%
[4]
  Papp A→B at 2 h: 13.3 ×10⁻⁶ cm/s

## COc1cnc(C(=O)Nc2cc(F)c(F)c([C@]3(C)CS(=O)(=O)N(C)C(=N)N3)c2)cn1 [Example 40di]
Rat cortex Aβ40
  Change in rat cortex Aβ40 (Iminothiadiazine Dioxide): −38%
[4]
  Papp A→B at 2 h: 13.6 ×10⁻⁶ cm/s

## CN1C(=N)N[C@](C)(c2cc(NC(=O)c3ccc(S(C)(=O)=O)cn3)cc(F)c2F)CS1(=O)=O [Example 40do]
[5]; about values
  Ki: ≥ 500 nM

## CN1C(=N)N[C@](C)(c2cc(NC(=O)c3c(F)cncc3C(F)(F)F)cc(F)c2F)CS1(=O)=O [Example 40ex]
[5]; about values
  Ki: ≥ 500 nM

## Cc1cnc(C(=O)Nc2cc([C@]3(C)CS(=O)(=O)N(C)C(=N)N3)ccn2)cn1 [Example 40x]
[3]
  Ki: ≥ 5000 nM

## CN1C(=N)N[C@](C)(c2cc(-c3cccc(C#N)c3)cs2)CS1(=O)=O [Example 45]
[4]
  Papp A→B at 2 h: 22.6 ×10⁻⁶ cm/s

## CN1C(=N)N[C@](C)(c2cc(-c3ccc(F)c(C#N)c3)cs2)CS1(=O)=O [Example 46]
[4]
  Papp A→B at 2 h: 18.9 ×10⁻⁶ cm/s

## CC#Cc1cncc(-c2cc(Cl)c([C@]3(C)CS(=O)(=O)N(C)C(=N)N3)s2)c1 [Example 52]
[4]
  Papp A→B at 2 h: 27.8 ×10⁻⁶ cm/s

## CC[C@H]1[C@@](C)(c2cc(F)ccc2F)NC(=N)N(C)S1(=O)=O [Example 98]
[3]
  Ki: ≥ 5000 nM

## CC1[C@@](C)(c2cccc(-c3cccc(C#N)c3)c2)NC(=N)N(C)S1(=O)=O (stereo partly shown) [Example 101]
[3]
  Ki: ≥ 5000 nM

## CN1C(=N)NC(C)(c2cc(NC(=O)N3CCCCC3)ccc2F)CS1(=O)=O (stereo not shown) [Example 160]
[5]
  Ki: ≥ 500 nM

## CN1C(=N)N[C@](C)(c2cc(NC(=O)N3CCOCC3)ccc2F)CS1(=O)=O [Example 161a]
[5]; about values
  Ki: ≥ 500 nM

## CN1C(=N)N[C@](C)(c2cccc(Nc3ncccc3C#N)n2)CS1(=O)=O [Example 164]
[5]; about values
  Ki: ≥ 500 nM

## CN1C(=N)N[C@](C)(c2c(F)ccc(NC(=O)c3ccc(F)cn3)c2F)CS1(=O)=O [Example 173]
Rat cortex Aβ40
  Change in rat cortex Aβ40 (Iminothiadiazine Dioxide): −27%
Caco-2 cells
  Caco-2 AP → BL (nm/s) (Iminothiadiazine Dioxide): 126 nm/s

## CCc1cc2cc(F)c([C@]3(C)CS(=O)(=O)N(C)C(=N)N3)cc2[nH]1 [Example 189]
[3]
  Ki: ≥ 5000 nM

## CN1C(=N)N[C@](C)(c2cc(NC(=O)c3ccc(Cl)cn3)ccc2F)CC1=O [drawing 705, reference compound]
Rat cortex Aβ40
  Change in rat cortex Aβ40 (Iminopyrimidinone): −19%

## CN1C(=N)N[C@](C)(c2cc(NC(=O)c3ccc(C(F)(F)F)cn3)ccc2F)CC1=O [drawing 707, reference compound]
Rat cortex Aβ40
  Change in rat cortex Aβ40 (Iminopyrimidinone): 0%

## CN1C(=N)N[C@](C)(c2cc(NC(=O)c3ccc(F)cn3)ccc2F)CC1=O [drawing 709, reference compound]
Rat cortex Aβ40
  Change in rat cortex Aβ40 (Iminopyrimidinone): −11%

## COc1cnc(C(=O)Nc2cc(F)c(F)c([C@]3(C)CC(=O)N(C)C(=N)N3)c2)cn1 [drawing 713, reference compound]
Rat cortex Aβ40
  Change in rat cortex Aβ40 (Iminopyrimidinone): +5%

## CN1C(=N)N[C@](C)(c2cc(NC(=O)c3ccc(F)cn3)ccc2F)CC1=O [drawing 717, reference compound]
Rat cortex Aβ40
  Change in rat cortex Aβ40 (Iminopyrimidinone): −3%

## CN1C(=N)N[C@](C)(c2cc(-c3cccc(C#N)c3)cs2)CC1=O [drawing 719, reference compound]
Rat cortex Aβ40
  Change in rat cortex Aβ40 (Iminopyrimidinone): −5%

## CN1C(=N)N[C@](C)(c2cc(NC(=O)c3ccc(Cl)cn3)ccc2F)CC1=O [drawing 727, reference compound]
Caco-2 cells
  Caco-2 AP → BL (nm/s) (Iminopyrimidinone): 0 nm/s

## CN1C(=N)N[C@](C)(c2cc(NC(=O)c3ccc(C(F)(F)F)cn3)ccc2F)CC1=O [drawing 729, reference compound]
Caco-2 cells
  Caco-2 AP → BL (nm/s) (Iminopyrimidinone): 17 nm/s

## CN1C(=N)N[C@](C)(c2cc(NC(=O)c3ccc(F)cn3)ccc2F)CC1=O [drawing 731, reference compound]
Caco-2 cells
  Caco-2 AP → BL (nm/s) (Iminopyrimidinone): 22 nm/s

## COc1cnc(C(=O)Nc2cc(F)c(F)c([C@]3(C)CC(=O)N(C)C(=N)N3)c2)cn1 [drawing 735, reference compound]
Caco-2 cells
  Caco-2 AP → BL (nm/s) (Iminopyrimidinone): 65 nm/s

## CN1C(=N)N[C@](C)(c2cc(NC(=O)c3ccc(F)cn3)ccc2F)CC1=O [drawing 739, reference compound]
Caco-2 cells
  Caco-2 AP → BL (nm/s) (Iminopyrimidinone): 25 nm/s
[4]; Caco-2, Papp BL to AP / Papp AP to BL, iminopyrimidinone analog
  efflux ratio at 2 h: 6.1

## CN1C(=N)N[C@](C)(c2cc(-c3cccc(C#N)c3)cs2)CC1=O [drawing 741, reference compound]
Caco-2 cells
  Caco-2 AP → BL (nm/s) (Iminopyrimidinone): 174 nm/s

## CC#Cc1cncc(-c2cc(Cl)c([C@]3(C)CC(=O)N(C)C(=N)N3)s2)c1 [drawing 745, reference compound]
Caco-2 cells
  Caco-2 AP → BL (nm/s) (Iminopyrimidinone): 153 nm/s

## Cc1cnc(C(=O)Nc2ccc(F)c([C@]3(C)CC(=O)N(C)C(=N)N3)c2)cn1 [reference compound]
Caco-2 cells
  Caco-2 AP → BL (nm/s) (Iminopyrimidinone): 11 nm/s

## Cc1ccc(C(=O)Nc2ccc(F)c([C@]3(C)CC(=O)N(C)C(=N)N3)c2)nc1 [reference compound]
Caco-2 cells
  Caco-2 AP → BL (nm/s) (Iminopyrimidinone): 0 nm/s

## CN1C(=N)N[C@](C)(c2cc(-c3ccc(F)c(C#N)c3)cs2)CC1=O [reference compound]
Caco-2 cells
  Caco-2 AP → BL (nm/s) (Iminopyrimidinone): 136 nm/s
